Measured values published in paper PMC5762315, “Inhibition of polo-like kinase 4 (PLK4): a new therapeutic option for rhabdoid tumors and pediatric medulloblastoma” (Oncotarget, 2017).
Values joined by “and” are separate entries in the source; they are usually repeats but may differ in a detail not shown here. Identical values can stand only once.

Columns and labels:
Experiment in all cases: biochemical
Format in all cases: biochemical
[1] = target: various kinases (Homo sapiens, UniProt Q07002); settings: CDK18/cyclin Y
[2] = target: various kinases (Homo sapiens, UniProt P51955); settings: NEK2
[3] = target: various kinases (Homo sapiens, UniProt P07949, A883F); settings: kinase RET A883F; ZLYTE
various kinases (Homo sapiens, UniProt P07949, A883F), sequence (P07949 29-1114 A883F): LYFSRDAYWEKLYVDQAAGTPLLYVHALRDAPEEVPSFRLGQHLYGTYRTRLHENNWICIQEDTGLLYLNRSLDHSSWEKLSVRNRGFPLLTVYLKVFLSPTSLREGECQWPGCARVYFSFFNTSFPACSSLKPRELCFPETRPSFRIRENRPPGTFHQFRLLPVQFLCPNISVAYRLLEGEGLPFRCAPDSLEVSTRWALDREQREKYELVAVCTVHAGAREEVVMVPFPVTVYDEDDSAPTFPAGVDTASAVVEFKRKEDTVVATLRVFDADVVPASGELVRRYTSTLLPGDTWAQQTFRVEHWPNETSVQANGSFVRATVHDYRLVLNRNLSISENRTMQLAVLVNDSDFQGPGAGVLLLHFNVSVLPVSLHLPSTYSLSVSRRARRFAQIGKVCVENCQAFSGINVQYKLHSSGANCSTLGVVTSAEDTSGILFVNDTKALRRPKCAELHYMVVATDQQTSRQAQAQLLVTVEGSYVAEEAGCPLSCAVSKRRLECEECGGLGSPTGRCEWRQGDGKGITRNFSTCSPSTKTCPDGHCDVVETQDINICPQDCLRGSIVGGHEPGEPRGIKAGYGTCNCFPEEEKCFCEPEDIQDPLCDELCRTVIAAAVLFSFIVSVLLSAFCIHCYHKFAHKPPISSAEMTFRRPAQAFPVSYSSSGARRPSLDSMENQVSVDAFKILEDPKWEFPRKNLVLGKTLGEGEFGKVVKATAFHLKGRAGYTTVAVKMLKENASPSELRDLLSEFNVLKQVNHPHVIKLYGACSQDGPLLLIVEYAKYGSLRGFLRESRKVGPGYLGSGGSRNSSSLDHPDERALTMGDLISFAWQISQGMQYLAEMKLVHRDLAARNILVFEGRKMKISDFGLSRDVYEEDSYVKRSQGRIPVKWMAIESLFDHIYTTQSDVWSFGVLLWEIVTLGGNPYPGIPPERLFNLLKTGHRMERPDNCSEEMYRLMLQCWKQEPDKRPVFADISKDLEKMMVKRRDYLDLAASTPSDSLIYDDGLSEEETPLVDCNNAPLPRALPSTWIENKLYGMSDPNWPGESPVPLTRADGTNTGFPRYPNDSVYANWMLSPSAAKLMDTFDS

[4] = target: various kinases (Homo sapiens, UniProt O15530)
various kinases (Homo sapiens, UniProt O15530), sequence (O15530 whole entry): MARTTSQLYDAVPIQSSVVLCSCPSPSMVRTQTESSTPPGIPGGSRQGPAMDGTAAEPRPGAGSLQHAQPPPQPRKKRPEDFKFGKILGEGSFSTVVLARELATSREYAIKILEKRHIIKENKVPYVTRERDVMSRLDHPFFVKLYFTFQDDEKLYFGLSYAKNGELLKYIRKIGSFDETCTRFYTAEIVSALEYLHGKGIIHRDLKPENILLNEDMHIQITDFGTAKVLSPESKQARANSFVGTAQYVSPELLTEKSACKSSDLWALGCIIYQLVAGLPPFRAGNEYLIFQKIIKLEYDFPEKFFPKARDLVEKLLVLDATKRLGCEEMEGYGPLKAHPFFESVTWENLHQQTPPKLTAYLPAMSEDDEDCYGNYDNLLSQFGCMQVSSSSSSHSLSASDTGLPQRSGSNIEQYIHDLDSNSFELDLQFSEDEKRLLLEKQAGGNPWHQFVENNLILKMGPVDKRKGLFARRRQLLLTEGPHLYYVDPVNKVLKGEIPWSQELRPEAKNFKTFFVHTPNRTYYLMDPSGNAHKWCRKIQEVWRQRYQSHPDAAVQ

[5] = target: various kinases (Homo sapiens, UniProt P15056); settings: BRAF
[6] = target: various kinases (Homo sapiens, UniProt P21709); settings: EPHA1
[7] = target: various kinases (Homo sapiens, UniProt P00519, F317I); settings: ABL1 F317I
[8] = target: various kinases (Homo sapiens, UniProt Q04912); settings: MST1R (RON)
[9] = target: various kinases (Homo sapiens, UniProt P49674, R178C); settings: CSNK1E (CK1 epsilon) R178C
[10] = target: various kinases (Homo sapiens, UniProt P07949, Y791F); settings: kinase RET Y791F; ZLYTE
various kinases (Homo sapiens, UniProt P07949, Y791F), sequence (P07949 29-1114 Y791F): as the sequence (P07949 29-1114 A883F) above, with Y763F, F855A counted along it

[11] = target: various kinases (Homo sapiens, UniProt P08581); settings: MET (cMet)
[12] = target: various kinases (Homo sapiens, UniProt P32298); settings: GRK4
[13] = target: various kinases (Homo sapiens, UniProt P78527); settings: DNA-PK
[14] = target: various kinases (Homo sapiens, UniProt P07949, V804E); settings: kinase RET V804E; ZLYTE
various kinases (Homo sapiens, UniProt P07949, V804E), sequence (P07949 29-1114 V804E): as the sequence (P07949 29-1114 A883F) above, with V776E, F855A counted along it

[15] = target: various kinases (Homo sapiens, UniProt P30530); settings: AXL
various kinases (Homo sapiens, UniProt P30530), sequence (P30530 26-894): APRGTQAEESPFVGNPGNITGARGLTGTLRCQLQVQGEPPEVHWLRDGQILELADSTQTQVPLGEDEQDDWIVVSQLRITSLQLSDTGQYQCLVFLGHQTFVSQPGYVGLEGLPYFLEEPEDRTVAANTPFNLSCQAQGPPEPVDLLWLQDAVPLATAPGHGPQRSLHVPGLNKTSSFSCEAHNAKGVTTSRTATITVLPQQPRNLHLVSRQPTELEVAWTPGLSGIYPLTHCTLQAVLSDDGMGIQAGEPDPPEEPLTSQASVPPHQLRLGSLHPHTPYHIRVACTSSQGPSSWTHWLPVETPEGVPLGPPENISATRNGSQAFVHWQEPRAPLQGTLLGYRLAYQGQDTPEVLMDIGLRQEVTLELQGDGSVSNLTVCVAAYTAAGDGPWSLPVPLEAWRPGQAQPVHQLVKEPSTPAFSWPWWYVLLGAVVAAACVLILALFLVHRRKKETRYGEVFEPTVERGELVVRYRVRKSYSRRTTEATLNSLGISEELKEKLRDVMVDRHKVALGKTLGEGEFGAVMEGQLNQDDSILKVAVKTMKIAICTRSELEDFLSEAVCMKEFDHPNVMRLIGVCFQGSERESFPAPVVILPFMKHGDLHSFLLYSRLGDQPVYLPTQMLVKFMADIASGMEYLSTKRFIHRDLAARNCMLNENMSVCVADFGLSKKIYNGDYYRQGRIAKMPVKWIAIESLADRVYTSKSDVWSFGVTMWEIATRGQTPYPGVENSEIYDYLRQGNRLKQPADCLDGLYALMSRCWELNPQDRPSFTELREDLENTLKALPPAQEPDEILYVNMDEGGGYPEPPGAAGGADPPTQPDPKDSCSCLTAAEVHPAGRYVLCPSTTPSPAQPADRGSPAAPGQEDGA

[16] = target: various kinases (Homo sapiens, UniProt P36888, D835Y); settings: FLT3 D835Y
[17] = target: various kinases (Homo sapiens, UniProt Q14680); settings: MELK
[18] = target: various kinases (Homo sapiens, UniProt P25098); settings: ADRBK1 (GRK2)
[19] = target: various kinases (Homo sapiens, UniProt P31751); settings: AKT2 (PKB beta)
[20] = target: various kinases (Homo sapiens, UniProt P08581, M1250T); settings: MET M1250T
[21] = target: various kinases (Homo sapiens, UniProt Q13131)
various kinases (Homo sapiens, UniProt Q13131), sequence (Q13131 whole entry): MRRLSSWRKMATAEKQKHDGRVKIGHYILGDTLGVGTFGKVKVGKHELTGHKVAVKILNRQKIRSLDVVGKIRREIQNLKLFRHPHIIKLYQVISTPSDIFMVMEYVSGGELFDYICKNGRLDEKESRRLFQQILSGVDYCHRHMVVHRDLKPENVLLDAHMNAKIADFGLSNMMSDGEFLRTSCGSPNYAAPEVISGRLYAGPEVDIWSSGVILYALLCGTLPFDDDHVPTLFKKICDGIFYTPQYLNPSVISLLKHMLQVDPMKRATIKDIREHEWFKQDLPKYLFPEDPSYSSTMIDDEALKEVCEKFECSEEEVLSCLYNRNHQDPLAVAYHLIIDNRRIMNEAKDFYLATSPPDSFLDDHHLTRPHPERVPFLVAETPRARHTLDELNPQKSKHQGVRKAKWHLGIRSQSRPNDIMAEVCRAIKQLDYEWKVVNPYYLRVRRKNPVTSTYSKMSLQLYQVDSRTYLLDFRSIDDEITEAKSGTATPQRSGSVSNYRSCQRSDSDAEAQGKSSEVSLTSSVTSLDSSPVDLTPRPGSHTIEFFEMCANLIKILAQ

[22] = target: various kinases (Homo sapiens, UniProt Q9Y463); settings: DYRK1B
[23] = target: various kinases (Homo sapiens, UniProt P31749); settings: AKT1 (PKB alpha)
[24] = target: various kinases (Homo sapiens, UniProt P49840); settings: GSK3A (GSK3 alpha)
[25] = target: various kinases (Homo sapiens, UniProt P16234, V561D); settings: PDGFRA V561D
[26] = target: various kinases (Homo sapiens, UniProt P07332); settings: FES (FPS)
[27] = target: various kinases (Homo sapiens, UniProt Q6VAB6); settings: KSR2
[28] = target: various kinases (Homo sapiens, UniProt P15735); settings: PHKG2
[29] = target: various kinases (Homo sapiens, UniProt P54762); settings: EPHB1
[30] = target: various kinases (Homo sapiens, UniProt P48729); settings: CSNK1A1 (CK1 alpha 1)
[31] = target: various kinases (Homo sapiens, UniProt O95819); settings: MAP4K4 (HGK)
[32] = target: various kinases (Homo sapiens, UniProt P07949, S891A); settings: kinase RET S891A; ZLYTE
various kinases (Homo sapiens, UniProt P07949, S891A), sequence (P07949 29-1114 S891A): as the sequence (P07949 29-1114 A883F) above, with F855A, S863A counted along it

[33] = target: various kinases (Homo sapiens, UniProt Q9UK32); settings: kinase RPS6KA6 (RSK4); ZLYTE
various kinases (Homo sapiens, UniProt Q9UK32), sequence (Q9UK32 whole entry): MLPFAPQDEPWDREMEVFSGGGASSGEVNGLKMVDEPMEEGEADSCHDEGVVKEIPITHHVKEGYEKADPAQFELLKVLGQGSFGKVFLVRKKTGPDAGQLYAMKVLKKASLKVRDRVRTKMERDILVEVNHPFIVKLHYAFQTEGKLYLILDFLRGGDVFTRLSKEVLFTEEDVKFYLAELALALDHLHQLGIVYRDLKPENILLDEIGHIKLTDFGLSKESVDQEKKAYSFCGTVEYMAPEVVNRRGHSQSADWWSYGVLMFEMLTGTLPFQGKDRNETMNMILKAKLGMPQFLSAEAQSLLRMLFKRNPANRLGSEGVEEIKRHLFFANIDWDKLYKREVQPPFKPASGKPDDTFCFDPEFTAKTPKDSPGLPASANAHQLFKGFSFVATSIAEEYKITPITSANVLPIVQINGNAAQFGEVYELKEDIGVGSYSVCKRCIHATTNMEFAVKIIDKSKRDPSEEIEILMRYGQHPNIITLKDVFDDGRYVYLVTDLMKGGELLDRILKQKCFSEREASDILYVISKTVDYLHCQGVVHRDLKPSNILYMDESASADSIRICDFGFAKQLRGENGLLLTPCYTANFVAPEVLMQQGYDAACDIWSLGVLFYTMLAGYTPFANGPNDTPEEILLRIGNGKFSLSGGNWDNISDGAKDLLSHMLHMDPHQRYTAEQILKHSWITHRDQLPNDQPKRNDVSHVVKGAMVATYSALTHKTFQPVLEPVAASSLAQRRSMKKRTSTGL

[34] = target: various kinases (Homo sapiens, UniProt Q8TD19); settings: NEK9
[35] = target: various kinases (Homo sapiens, UniProt O96017); settings: CHEK2 (CHK2)
[36] = target: various kinases (Homo sapiens, UniProt Q14289); settings: kinase PTK2B (FAK2); ZLYTE
various kinases (Homo sapiens, UniProt Q14289), sequence (Q14289 whole entry): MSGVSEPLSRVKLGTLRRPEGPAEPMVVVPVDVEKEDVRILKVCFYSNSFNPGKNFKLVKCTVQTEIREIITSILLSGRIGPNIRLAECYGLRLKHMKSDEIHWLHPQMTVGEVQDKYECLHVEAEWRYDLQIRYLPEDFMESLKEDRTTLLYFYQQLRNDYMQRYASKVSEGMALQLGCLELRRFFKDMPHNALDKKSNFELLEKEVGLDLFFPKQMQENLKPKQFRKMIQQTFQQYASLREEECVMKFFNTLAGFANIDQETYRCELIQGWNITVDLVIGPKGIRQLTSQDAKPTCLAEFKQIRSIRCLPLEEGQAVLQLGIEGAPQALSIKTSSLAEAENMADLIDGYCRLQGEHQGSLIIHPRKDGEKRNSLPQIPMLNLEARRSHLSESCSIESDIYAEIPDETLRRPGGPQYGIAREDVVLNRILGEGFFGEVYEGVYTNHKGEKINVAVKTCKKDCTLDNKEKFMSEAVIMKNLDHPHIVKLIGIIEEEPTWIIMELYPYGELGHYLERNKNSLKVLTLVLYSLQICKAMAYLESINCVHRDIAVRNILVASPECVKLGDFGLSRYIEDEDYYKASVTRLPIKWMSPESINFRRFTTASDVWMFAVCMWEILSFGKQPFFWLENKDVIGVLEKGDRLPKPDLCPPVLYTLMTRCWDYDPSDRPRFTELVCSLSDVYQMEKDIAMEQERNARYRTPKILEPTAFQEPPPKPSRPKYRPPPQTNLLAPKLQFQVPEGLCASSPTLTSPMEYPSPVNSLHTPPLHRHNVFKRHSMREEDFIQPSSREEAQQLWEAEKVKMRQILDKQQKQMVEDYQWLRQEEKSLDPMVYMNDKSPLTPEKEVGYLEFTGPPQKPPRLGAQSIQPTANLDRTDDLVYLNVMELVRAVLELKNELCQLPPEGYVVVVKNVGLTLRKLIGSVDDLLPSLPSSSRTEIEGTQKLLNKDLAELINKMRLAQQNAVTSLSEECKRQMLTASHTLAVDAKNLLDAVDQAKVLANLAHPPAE

[37] = target: various kinases (Homo sapiens, UniProt P41279); settings: MAP3K8 (COT)

COc1ccc2c(c1)[C@]1(C[C@H]1c1ccc3c(/C=C/c4ccc(CN5C[C@@H](C)O[C@@H](C)C5)cc4)n[nH]c3c1)C(=O)N2 [CFI-400945]
% Inhibition [1]: 5% and 4%
% Inhibition [2]: -1% and 1%
% Inhibition Average [3]: 7%
% Inhibition Duplicate #1 [3]: 9%
% Inhibition Duplicate #2 [3]: 4%
% Inhibition ([4]; PDK1): 3% and 2%
% Inhibition ([4]; PDK1 Direct): 6%
% Inhibition [5]: -1% and 2%
% Inhibition [6]: 20% and 26%
% Inhibition [7]: 4% and 5%
% Inhibition [8]: 8% and 9%
% Inhibition [9]: 1%
% Inhibition Average [10]: 14%
% Inhibition Duplicate #1 [10]: 13%
% Inhibition Duplicate #2 [10]: 14%
% Inhibition [11]: 16% and 14%
% Inhibition [12]: 1% and -1%
% Inhibition [13]: 3% and 1%
% Inhibition Average [14]: 0%
% Inhibition Duplicate #1 [14]: 0%
% Inhibition Duplicate #2 [14]: 0%
% Inhibition [15]: 10% and 11%
% Inhibition [16]: 27% and 29%
% Inhibition [17]: 9% and 18%
% Inhibition [18]: 5% and 4%
% Inhibition [19]: 3%
% Inhibition [20]: 11%
% Inhibition ([21]; AMPK (A1/B2/G2)): 25% and 20%
% Inhibition ([21]; AMPK (A1/B2/G3)): 13% and 21%
% Inhibition ([21]; AMPK A1/B1/G1): 14% and 9%
% Inhibition [22]: -1% and -5%
% Inhibition [23]: 4% and 3%
% Inhibition [24]: 3% and 4%
% Inhibition [25]: 5% and 4%
% Inhibition [26]: 13% and 10%
% Inhibition [27]: 3% and 4%
% Inhibition [28]: 8% and 7%
% Inhibition [29]: 11% and 16%
% Inhibition [30]: 7%
% Inhibition [31]: 9% and 13%
% Inhibition Average [32]: 55%
% Inhibition Duplicate #1 [32]: 59%
% Inhibition Duplicate #2 [32]: 52%
% Inhibition Average [33]: 4%
% Inhibition Duplicate #1 [33]: 6%
% Inhibition Duplicate #2 [33]: 3%
% Inhibition [34]: 10% and 4%
% Inhibition [35]: 3% and 2%
% Inhibition Average [36]: 3%
% Inhibition Duplicate #1 [36]: 3%
% Inhibition Duplicate #2 [36]: 3%
% Inhibition [37]: 7%
